Results: patent publication US12384753B2, “17-beta-hydroxysteroid dehydrogenase type 13 inhibitors and methods of use thereof” (Enanta Pharmaceuticals, Inc., priority 2021, dated 2025)

Each molecule was assayed against Recombinant human HSD17B13 (Homo sapiens (Human), UniProt Q7Z5P4) (assay: HSD17B13 rapid-fire mass spectrometry assay (RF/MS assay)). Details: inhibition of HSD17B13; LTB4 10 μM, NAD+ 0.5 mM, RT 3 h; IC50 ranges A-E.
Recombinant human HSD17B13, sequence (Q7Z5P4 20-300): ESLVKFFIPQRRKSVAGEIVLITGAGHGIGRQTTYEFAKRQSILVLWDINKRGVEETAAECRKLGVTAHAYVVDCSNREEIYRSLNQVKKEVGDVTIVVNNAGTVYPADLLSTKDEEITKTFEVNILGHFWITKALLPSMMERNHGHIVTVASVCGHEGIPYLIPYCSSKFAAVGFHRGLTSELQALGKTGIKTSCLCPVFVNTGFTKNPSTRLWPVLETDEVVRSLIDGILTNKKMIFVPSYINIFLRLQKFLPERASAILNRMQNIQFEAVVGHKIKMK
Format: biochemical
Method in brief: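 Product 12-oxo-LTB4 and substrate LTB4 quantified by RapidFire triple-quad MS in negative mode, giving percent conversion. Reaction: 80 nM recombinant hHSD17B13, 10 μM LTB4, 0.5 mM NAD+, compound up to 100 μM, pH 7.5, RT, 3 h. Variable-slope fit gave IC50; run in duplicate.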
`COc1cc(C(=O)O)ccc1NS(=O)(=O)c1csc(N2CCCC(c3ccccc3)C2)n1` (stereo not shown) [Example 269] gave an IC50 of 100 to 500 nM. Molecule `COc1cc(C(=O)O)ccc1NS(=O)(=O)c1csc(N2CCCCC2c2ccccc2)n1` (stereo not shown) [Example 270] has an IC50 of 100 to 500 nM. With `COc1cc(C(=O)O)ccc1NS(=O)(=O)c1csc(N2CCN(c3ccc(OC(F)(F)F)cc3)CC2)n1` [Example 271] the IC50 was 100 to 500 nM. Molecule `COc1cc(C(=O)O)ccc1NS(=O)(=O)c1csc(N2CCN(c3ccc(C(F)(F)F)cc3)CC2)n1` [Example 272] has an IC50 of 100 to 500 nM. `COc1cc(C(=O)O)ccc1NS(=O)(=O)c1csc(N2CCCC(NCc3ccccc3)C2)n1` (stereo not shown) [Example 273] was tested, and the IC50 was 1000 to 100000 nM. For `COc1cc(C(=O)O)ccc1NS(=O)(=O)c1csc(N2CCCC(Cc3ccc(C)cc3)C2)n1` (stereo not shown) [Example 274], the IC50 was 500 to 1000 nM. Work on `COc1ccc(CC2CCCN(c3nc(S(=O)(=O)Nc4ccc(C(=O)O)cc4OC)cs3)C2)cc1` (stereo not shown) [Example 275] yielded an IC50 of 1000 to 100000 nM. With `COc1cc(C(=O)O)ccc1NS(=O)(=O)c1csc(N2CCCC(Oc3ccccc3)C2)n1` (stereo not shown) [Example 276] the IC50 was 1000 to 100000 nM. With `COc1cc(C(=O)O)ccc1NS(=O)(=O)c1csc(N2CCCC(CCc3ccccc3)C2)n1` (stereo not shown) [Example 277] the IC50 was 1000 to 100000 nM. Work on `COc1cc(C(=O)O)ccc1NS(=O)(=O)c1csc(N2CCN(c3ccc(C)cc3)CC2)n1` [Example 278] yielded an IC50 of 1000 to 100000 nM. `COc1cc(C(=O)O)ccc1NS(=O)(=O)c1csc(N2CCC[C@@H](Cc3ccc(F)cc3)C2)n1` [Example 279] gave an IC50 of 1000 to 100000 nM. `COc1cc(C(=O)O)ccc1NS(=O)(=O)c1csc(-c2ccc(-c3ccc(OC(F)(F)F)cc3)cc2)n1` [Example 280] was tested, and the IC50 was 100 to 500 nM. Molecule `COc1cc(C(=O)O)ccc1NS(=O)(=O)c1csc(-c2ccc(C3CCCCC3)cc2)n1` [Example 281, 4-((2-(4-cyclohexylphenyl)thiazole)-4-sulfonamido)-3-methoxybenzoic acid] has an IC50 of 100 to 500 nM. In the case of `COc1cc(C(=O)O)ccc1NS(=O)(=O)c1csc(N2CCN(c3cccc(OC(F)(F)F)c3)CC2)n1` [Example 282], the IC50 is reported as 100 to 500 nM. `COc1cc(C(=O)O)ccc1NS(=O)(=O)c1csc(N2CCCC(Cc3ccc(C(F)(F)F)cc3)C2)n1` (stereo not shown) [Example 283] gave an IC50 of 100 to 500 nM. Molecule `COc1cc(C(=O)O)ccc1NS(=O)(=O)c1csc(-c2ccc(N3CCCCC3)cc2)n1` [Example 284] has an IC50 of 100 to 500 nM. For `COc1cc(C(=O)O)ccc1NS(=O)(=O)c1csc(N2CCN(c3ccc(Br)cc3)CC2)n1` [Example 285], the IC50 was 1000 to 100000 nM. Molecule `COc1cc(C(=O)O)ccc1NS(=O)(=O)c1csc(N2CCCC(C(=O)c3ccccc3)C2)n1` (stereo not shown) [Example 286] has an IC50 of 500 to 1000 nM. In the case of `COc1cc(C(=O)O)ccc1NS(=O)(=O)c1csc(N2CCN(C(=O)c3ccccc3)CC2)n1` [Example 287], the IC50 is reported as 1000 to 100000 nM. `COc1cc(C(=O)O)ccc1NS(=O)(=O)c1csc(N2CCN(c3ccc(-c4ccccc4)cc3)CC2)n1` [Example 288] was tested, and the IC50 was 100 to 500 nM. For `COc1cc(C(=O)O)ccc1NS(=O)(=O)c1csc(N2C[C@@H]3C[C@H]2CN3c2ccccc2)n1` [Example 289], the IC50 was 500 to 1000 nM. With `COc1cc(C(=O)O)ccc1NS(=O)(=O)c1csc(N2CCN(S(=O)(=O)c3ccc(C)cc3)CC2)n1` [Example 290] the IC50 was 1000 to 100000 nM. `COc1cc(C(=O)O)ccc1NS(=O)(=O)c1csc(N2CCN(c3ccc(N(C)C)cc3)CC2)n1` [Example 291] was tested, and the IC50 was 1000 to 100000 nM. `COc1cc(C(=O)O)ccc1NS(=O)(=O)c1csc(N2CCCC(c3ccc(F)cc3)C2)n1` (stereo not shown) [Example 292] showed an IC50 of 1000 to 100000 nM. With `COc1cc(C(=O)O)ccc1NS(=O)(=O)c1csc(N2CCCC(c3ccc(C(F)(F)F)cc3)C2)n1` (stereo not shown) [Example 293] the IC50 was 1000 to 100000 nM. `COc1cc(C(=O)O)ccc1NS(=O)(=O)c1csc(N2CCN(C(=O)OCc3ccccc3)CC2)n1` [Example 294] gave an IC50 of 100 to 500 nM. `COc1cc(C(=O)O)ccc1NS(=O)(=O)c1csc(N2CCCC(C(C)c3ccccc3)C2)n1` (stereo not shown) [Example 295] showed an IC50 of 1000 to 100000 nM. Work on `COc1cc(C(=O)O)ccc1NS(=O)(=O)c1csc(-c2ccc(-c3ccc(F)cc3)cc2)n1` [Example 296] yielded an IC50 of 1000 to 100000 nM. `COc1cc(C(=O)O)ccc1NS(=O)(=O)c1csc(-c2ccc(C(=O)c3ccccc3)cc2)n1` [Example 297] gave an IC50 of 500 to 1000 nM. Work on `COc1cc(C(=O)O)ccc1NS(=O)(=O)c1ccc(-c2csc(C)n2)cc1` [Example 298] yielded an IC50 of 1000 to 100000 nM. Molecule `COc1cc(C(=O)O)ccc1NS(=O)(=O)c1csc(-c2ccc(-c3ccccc3)nc2)n1` [Example 299] has an IC50 of 1000 to 100000 nM. Molecule `COc1cc(C(=O)O)ccc1NS(=O)(=O)c1csc(-c2ccc(C3CCCC3)cc2)n1` [Example 300] has an IC50 of 500 to 1000 nM. `COc1cc(C(=O)O)ccc1NS(=O)(=O)c1csc(-c2ccc(-c3ccccc3)cc2)n1` [Example 301] showed an IC50 of 500 to 1000 nM. With `COc1cc(C(=O)O)ccc1NS(=O)(=O)c1csc(-c2ccc(-c3ccccc3)c(F)c2)n1` [Example 302] the IC50 was 100 to 500 nM. `COc1cc(C(=O)O)ccc1NS(=O)(=O)c1csc(-c2ccc(N3CCOCC3)cc2)n1` [Example 303] gave an IC50 of 1000 to 100000 nM. `COc1cc(C(=O)O)ccc1NS(=O)(=O)c1csc(-c2ccc(-c3ccccc3)cc2F)n1` [Example 304] was tested, and the IC50 was 500 to 1000 nM. Molecule `COc1cc(C(=O)O)ccc1NS(=O)(=O)c1csc(N2CCN(C(=O)OC(C)(C)C)CC2)n1` [Example 305, 4-((2-(4-(tert-butoxycarbonyl)piperazin-1-yl)thiazole)-4-sulfonamido)-3-methoxybenzoic acid] has an IC50 of 1000 to 100000 nM. In the case of `COc1cc(C(=O)O)ccc1NS(=O)(=O)c1nc(-c2ccc(F)cc2)sc1-c1ccccc1` [Example 306], the IC50 is reported as 1000 to 100000 nM. For `COc1cc(C(=O)O)ccc1NS(=O)(=O)c1csc(N2CCN(C(=O)OCC3CCCCC3)CC2)n1` [Example 307, 4-((2-(4-((cyclohexylmethoxy)carbonyl)piperazin-1-yl)thiazole)-4-sulfonamido)-3-methoxybenzoic acid], the IC50 was 500 to 1000 nM. `COc1cc(C(=O)O)ccc1NS(=O)(=O)c1csc(N2CCN(Cc3ccc(OC(F)(F)F)cc3)CC2)n1` [Example 308] showed an IC50 of 100 to 500 nM. With `COc1cc(C(=O)O)ccc1NS(=O)(=O)c1csc(N2CCN(C(=O)OC(C)C)CC2)n1` [Example 309] the IC50 was 1000 to 100000 nM. With `COc1cc(C(=O)O)ccc1NS(=O)(=O)N1CCC(c2ccccc2)CC1` [Example 310] the IC50 was 1000 to 100000 nM. In the case of `COc1cc(C(=O)O)ccc1NS(=O)(=O)N1CCC(c2ccccn2)CC1` [Example 311], the IC50 is reported as 1000 to 100000 nM. `COc1cc(C(=O)O)ccc1NS(=O)(=O)N1CCN(c2ccccc2)CC1` [Example 312] was tested, and the IC50 was 1000 to 100000 nM. With `COc1cc(C(=O)O)ccc1NS(=O)(=O)N1CCC(c2nnn[nH]2)CC1` [Example 313] the IC50 was 1000 to 100000 nM. For `COc1cc(C(=O)O)ccc1NS(=O)(=O)N1CCN(c2nccs2)CC1` [Example 314], the IC50 was greater than 100000 nM. `COc1cc(C(=O)O)ccc1NS(=O)(=O)N1CCN(C2CCCC2)CC1` [Example 315] showed an IC50 of 1000 to 100000 nM. For `COc1cc(C(=O)O)ccc1NS(=O)(=O)c1ccc(-c2ccc(F)cc2)cc1` [Example 316], the IC50 was 100 to 500 nM. Work on `COc1cc(C(=O)O)ccc1NS(=O)(=O)N1CCN(c2ccc(OC(F)(F)F)cc2)C(=O)C1` [Example 317] yielded an IC50 of 1000 to 100000 nM. `COc1cc(C(=O)O)ccc1NS(=O)(=O)C1CCN(c2ncccn2)CC1` [Example 318] gave an IC50 of 1000 to 100000 nM. `COc1cc(C(=O)O)ccc1NS(=O)(=O)c1cccc(-c2ccc(F)cc2)c1` [Example 319] was tested, and the IC50 was 1000 to 100000 nM. For `COc1cc(C(=O)O)ccc1NS(=O)(=O)N1CCCC(Oc2ccccc2)C1` (stereo not shown) [Example 320, 3-methoxy-4-((3-phenoxypiperidine)-1-sulfonamido)benzoic acid], the IC50 was 1000 to 100000 nM. For `COc1cc(C(=O)O)ccc1NS(=O)(=O)N1CCN(c2cccc(-c3ccccc3)c2)CC1` [Example 321], the IC50 was 1000 to 100000 nM. `COc1cc(C(=O)O)ccc1NS(=O)(=O)c1csc(-c2ccc(C(=O)O)cc2OC)n1` [Example 322] was tested, and the IC50 was 1000 to 100000 nM. Work on `COc1cc(C(=O)O)ccc1NS(=O)(=O)c1ccc2sc(-c3ccc(F)cc3)nc2c1` [Example 323] yielded an IC50 of 1000 to 100000 nM. With `COc1cc(C(=O)O)ccc1NS(=O)(=O)c1ccc(-c2ccc(F)cc2)c(OC)c1` [Example 324] the IC50 was 100 to 500 nM. In the case of `COc1cc(C(=O)O)ccc1NS(=O)(=O)c1ccc(-c2ccc(C3CCCCC3)cc2)cc1OC(F)(F)F` [Example 325], the IC50 is reported as 1000 to 100000 nM. `COc1cc(C(=O)O)ccc1NS(=O)(=O)c1ccc(-c2ccc(C3CCCCC3)cc2)c(F)c1` [Example 326, 4-((4′-cyclohexyl-2-fluoro-[1,1′-biphenyl])-4-sulfonamido)-3-methoxybenzoic acid] showed an IC50 of 100 to 500 nM. `COc1cc(C(=O)O)ccc1NS(=O)(=O)Nc1ccc(C(=O)O)cc1OC` [Example 327] showed an IC50 of 1000 to 100000 nM. With `COc1cc(C(=O)O)ccc1NS(=O)(=O)Nc1ccc2nc(-c3ccc(F)cc3)sc2c1` [Example 328, 4-((N-(2-(4-fluorophenyl)benzo[d]thiazol-6-yl)sulfamoyl)amino)-3-methoxybenzoic acid] the IC50 was 1000 to 100000 nM. With `COc1cc(C(=O)O)ccc1NS(=O)(=O)Nc1nc2ccc(-c3ccc(F)cc3)cc2s1` [Example 329] the IC50 was 1000 to 100000 nM. For `COc1cc(C(=O)O)ccc1NS(=O)(=O)N1C[C@H]2CN(C(=O)OC(C)(C)C)C[C@H]2C1` [Example 331, 4-(((3aR,6aS)-5-(tert-butoxycarbonyl)octahydropyrrolo[3,4-c]pyrrole)-2-sulfonamido)-3-methoxybenzoic acid], the IC50 was 1000 to 100000 nM. For `COc1cc(C(=O)O)ccc1NS(=O)(=O)c1ccc(-c2cnc(-c3ccccc3)s2)c(F)c1` [Example 332], the IC50 was 100 to 500 nM. With `COc1cc(C(=O)O)ccc1NS(=O)(=O)c1ccc(-c2ccc(F)cc2)cc1F` [Example 333] the IC50 was 100 to 500 nM. `COc1cc(C(=O)O)ccc1NS(=O)(=O)N1Cc2ccc(-c3ccc(F)cc3)cc2C1` [Example 334] gave an IC50 of 100 to 500 nM. `COc1cc(C(=O)O)ccc1NS(=O)(=O)c1ccc(C#CC2CCCC2)c(F)c1` [Example 335, 4-((4-(cyclopentylethynyl)-3-fluorophenyl)sulfonamido)-3-methoxybenzoic acid] was tested, and the IC50 was less than 100 nM. `COc1cc(C(=O)O)ccc1NS(=O)(=O)c1csc(-c2ccc(C3CCC(C)(C)CC3)cc2)n1` [Example 336] gave an IC50 of less than 100 nM.
